# Laboratory results taken from patent publication US11352338B2, “Substituted isoindolinones” (BioTheryX, Inc., priority 2018, dated 2022).
# Read-outs that look alike come from different tables or passages of the source.
# Key:
# IL-2 = IL-2 inhibition assay, anti-CD3 (OKT3) stimulated PBMCs, Mesoscale IL-2 analysis; assay type: cell-based, human; details: for fold induction at 1 µM / fold induction at 10 µM: Homo sapiens, PBMC, read-out: IL-2, % Induction compared to DMSO
# Experimental: For the IL-2 analysis, 96 well plates were precoated with 1 μg/mL anti-human CD3 antibody (OKT3, eBioscience Inc., San Diego, Calif.). After washing with PBS, the indicated compound was added (50 μL/well) followed by PBMCs diluted at 3-4 million cells/mL (150 μL/well). Plates were incubated for 24 h and the supernatants collected for Mesoscale IL-2 analysis. IL-2 activity is measured as fold difference from the DMSO control. […]
# In Table 4, the fold-change values are reported as “A”, “B”, “C”, or “D”. “A” represents a fold-change value of equal to or less than 0.5 (value≤0.5); “B” represents a fold-change value of more than 0.5 and equal to or less than 1 (0.5<value≤1); “C” represents a fold-change value of more than 1 and less than 1.5 (1<value<1.5); and “D” represents a fold-change value of equal to or more than 1.5 (value≥1.5).
# TNFα = TNFα inhibition, LPS-induced PBMCs or CD14+ monocytes, Meso Scale assay; assay type: cell-based; details: LPS 100 ng/mL 18-24 h, read-out: % Inhibition compared to DMSO, TNFα; for inhibition at 1 µM: tested at 1 μM; for inhibition at 10 µM: tested at 10 μM
# Experimental: (§1) Either frozen primary blood mononuclear cells (PBMCs) or frozen CD14+ mobilized peripheral blood monocytes were purchased from AllCells (PB003F, Normal Peripheral Blood MNC (Alameda, Calif.)). Cells were quick thawed, washed 1-time with RPMI-1640 (10% FBS/1% Pen-Strep) and plated in 96 well plates at 200,000 cells per well. Cells were pretreated with DMSO only or with the indicated compound for 1 h and then induced with 100 ng/mL lipopolysaccharide (LPS) for 18-24 h. The supernatant was analyzed for IL-1β, IL-6, and TNFα, using Meso Scale assay according to manufacturer's protocol. The negative control wells were treated with DMSO.
# (§2) IL-1β, IL-6 and TNFα activities were tested at two different concentrations (1 μM and 10 μM) and the results are shown in Tables 2 and 3 respectively.
# IL-6 = IL-6 inhibition, LPS-induced PBMCs or CD14+ monocytes, Meso Scale assay; assay type: cell-based; details: LPS 100 ng/mL 18-24 h, read-out: % Inhibition compared to DMSO, IL-6; for inhibition at 1 µM: tested at 1 μM; for inhibition at 10 µM: tested at 10 μM
# Experimental: as §1, §2
# Ikaros = target: T1, Ikaros (Homo sapiens, UniProt Q13422+Q96SW2); test: Western blot, degradation of cellular Ikaros in MV-4-11 cells; assay type: cell-based; details: MV4-11, tested at 1 μM, 6-8 hours, read-out: % Degradation compared to DMSO, Ikaros
# T1 construct: endogenous in cells; host or cells: MV-4-11
# T1 sequence (Q13422 whole entry): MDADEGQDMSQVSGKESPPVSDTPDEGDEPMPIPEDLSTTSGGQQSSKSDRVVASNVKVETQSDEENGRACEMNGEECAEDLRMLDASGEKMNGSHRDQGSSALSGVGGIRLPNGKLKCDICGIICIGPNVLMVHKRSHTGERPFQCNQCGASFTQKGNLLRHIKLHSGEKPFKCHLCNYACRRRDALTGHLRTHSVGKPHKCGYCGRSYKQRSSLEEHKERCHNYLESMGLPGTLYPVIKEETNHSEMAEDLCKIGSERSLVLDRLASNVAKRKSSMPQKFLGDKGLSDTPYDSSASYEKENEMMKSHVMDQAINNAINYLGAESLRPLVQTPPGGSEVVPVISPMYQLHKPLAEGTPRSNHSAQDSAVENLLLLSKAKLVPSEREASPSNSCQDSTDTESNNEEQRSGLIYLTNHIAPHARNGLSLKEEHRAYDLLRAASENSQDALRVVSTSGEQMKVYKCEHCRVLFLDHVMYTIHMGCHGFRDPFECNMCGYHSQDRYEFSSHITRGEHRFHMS
# T1 sequence (Q96SW2 whole entry): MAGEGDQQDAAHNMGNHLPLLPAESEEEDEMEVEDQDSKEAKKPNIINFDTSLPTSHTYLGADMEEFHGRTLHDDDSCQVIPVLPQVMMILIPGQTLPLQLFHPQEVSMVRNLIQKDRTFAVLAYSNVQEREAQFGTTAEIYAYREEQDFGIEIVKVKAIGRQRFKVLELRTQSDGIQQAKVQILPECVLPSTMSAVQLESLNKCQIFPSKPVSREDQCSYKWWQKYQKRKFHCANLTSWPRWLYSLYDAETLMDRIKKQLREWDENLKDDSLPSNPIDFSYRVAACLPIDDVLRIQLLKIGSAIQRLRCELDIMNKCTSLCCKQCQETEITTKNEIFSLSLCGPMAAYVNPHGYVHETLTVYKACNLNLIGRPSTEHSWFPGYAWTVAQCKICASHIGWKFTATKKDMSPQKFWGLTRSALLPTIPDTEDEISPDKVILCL
# T1 sequence (Q16531 whole entry partner): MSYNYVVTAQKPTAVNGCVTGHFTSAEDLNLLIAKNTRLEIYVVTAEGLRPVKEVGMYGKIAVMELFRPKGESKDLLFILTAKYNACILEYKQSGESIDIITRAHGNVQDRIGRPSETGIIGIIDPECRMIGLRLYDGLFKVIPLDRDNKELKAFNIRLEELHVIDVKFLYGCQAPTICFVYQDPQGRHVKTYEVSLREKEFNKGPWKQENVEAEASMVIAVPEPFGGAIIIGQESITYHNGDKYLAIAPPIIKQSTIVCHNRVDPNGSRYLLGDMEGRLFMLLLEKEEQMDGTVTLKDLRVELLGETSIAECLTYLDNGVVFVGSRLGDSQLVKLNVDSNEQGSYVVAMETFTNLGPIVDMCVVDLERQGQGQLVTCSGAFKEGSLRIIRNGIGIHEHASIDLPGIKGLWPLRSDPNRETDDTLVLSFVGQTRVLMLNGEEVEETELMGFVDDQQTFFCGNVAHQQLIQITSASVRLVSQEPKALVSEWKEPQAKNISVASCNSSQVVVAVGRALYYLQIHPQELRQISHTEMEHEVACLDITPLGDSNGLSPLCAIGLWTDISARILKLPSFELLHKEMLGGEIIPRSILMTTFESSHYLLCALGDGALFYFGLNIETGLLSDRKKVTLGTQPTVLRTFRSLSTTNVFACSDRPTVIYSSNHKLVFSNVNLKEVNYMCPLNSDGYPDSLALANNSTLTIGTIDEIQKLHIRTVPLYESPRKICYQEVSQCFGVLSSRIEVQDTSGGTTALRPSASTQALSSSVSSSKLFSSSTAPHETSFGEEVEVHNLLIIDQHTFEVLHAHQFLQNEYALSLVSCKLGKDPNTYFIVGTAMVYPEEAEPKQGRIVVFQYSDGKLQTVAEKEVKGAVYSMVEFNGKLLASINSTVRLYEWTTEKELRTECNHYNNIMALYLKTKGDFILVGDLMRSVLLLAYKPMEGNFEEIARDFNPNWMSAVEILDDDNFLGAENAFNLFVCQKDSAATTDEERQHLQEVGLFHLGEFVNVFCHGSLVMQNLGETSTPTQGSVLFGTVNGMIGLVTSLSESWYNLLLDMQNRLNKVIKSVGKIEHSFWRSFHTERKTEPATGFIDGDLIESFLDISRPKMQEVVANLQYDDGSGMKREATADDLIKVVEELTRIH
# Experimental: (§3) MV-4-11 cells were grown in RPMI 1640 media supplemented with 10% fetal bovine serum, streptomycin and penicillin.
# (§4) Cells were cultured at approximately 10^6 cells per mL and incubated in DMSO or the indicated compounds for 6-8 hours. Whole cell extracts were prepared using RIPA lysis buffer according to manufacturer's protocol (Pierce). Briefly, 4×10^6 cells were washed once in PBS, the cell pellets were resuspended in RIPA lysis buffer and allowed to incubate for 15 minutes on ice. Cells debris was removed by centrifugation and the cleared whole cell lysates were transferred to new tubes for further analysis.
# (§5) For Western blot analysis, whole cell protein extracts were separated on 4-12% SDS-polyacrylamide gels, transferred to nitrocellulose and probed with the indicated primary antibodies. Membranes were subsequently washed and probed with the appropriate IRDye secondary antibodies (LI-COR). The signal was detected using the Odyssey Imaging System (LI-COR).
# (§6) The following antibodies were used in these studies: Anti-PDE6D antibody: Santa Cruz Biotechnology, sc-166854 (Dallas, Tex.); Anti-Ikaros: Abcam, ab191394 (Cambridge, Mass.); anti-CK1α antibody: Abcam, ab108296 (Cambridge, Mass.); β-Actin (8H10D10) mouse monoclonal antibody: Cell Signaling Technology, #3700 (Danvers, Mass.); IRDye 680RD Goat anti-rabbit antibody: LI-COR, 926-68071 (Lincoln, Nebr.); and IRDye 800CW Goat anti-mouse antibody: LI-COR, 926-32210 (Lincoln, Nebr.).
# (§7) The % degradation values are reported as “A”, “B”, “C”, or “D.” “A” represents a % degradation value of less than 25% (value<25%); “B” represents a % degradation value of equal to or more than 25% and less than 50% (25%≤value<50%); “C” represents a % degradation value of equal to or more than 50% and less than 75% (50%≤value<75%); and “D” represents a % degradation value of equal to or more than 75% (value≥75%). […] was used as control.
# IL-1β = IL-1β inhibition, LPS-induced PBMCs or CD14+ monocytes, Meso Scale assay; assay type: cell-based; details: LPS 100 ng/mL 18-24 h, read-out: % Inhibition compared to DMSO, IL-1β; for inhibition at 1 µM: tested at 1 μM; for inhibition at 10 µM: tested at 10 μM
# Experimental: as §1, §2
# CK1α = target: T2, CK1α (Homo sapiens, UniProt P48729+Q96SW2); test: Western blot, degradation of cellular CK1α in MV-4-11 cells; assay type: cell-based; details: MV4-11, tested at 1 μM, 6-8 hours, read-out: % Degradation compared to DMSO, CK1α
# T2 construct: endogenous in cells; host or cells: MV-4-11
# T2 sequence (P48729 whole entry): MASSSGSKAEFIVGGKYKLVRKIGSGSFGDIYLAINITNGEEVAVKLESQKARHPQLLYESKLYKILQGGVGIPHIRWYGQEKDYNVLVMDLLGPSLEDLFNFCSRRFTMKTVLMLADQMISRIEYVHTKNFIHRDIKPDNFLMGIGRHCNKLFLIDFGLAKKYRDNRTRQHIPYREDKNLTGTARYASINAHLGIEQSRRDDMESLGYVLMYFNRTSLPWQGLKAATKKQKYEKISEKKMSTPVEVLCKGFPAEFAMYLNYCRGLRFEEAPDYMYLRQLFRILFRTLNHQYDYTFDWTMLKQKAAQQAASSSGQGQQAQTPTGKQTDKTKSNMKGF
# T2 sequence (Q96SW2 whole entry): as the sequence (Q96SW2 whole entry) above
# T2 sequence (Q16531 whole entry partner): as the sequence (Q16531 whole entry partner) above
# Experimental: as §3, §4, §5, §6, §7
# PDE6D = target: T3, PDE6D (Homo sapiens, UniProt O43924+Q96SW2); test: Western blot, degradation of cellular PDE6D in MV-4-11 cells; assay type: cell-based; details: for Dmax at 1 µM: MV4-11, tested at 1 μM, MV-4-11 cells, 6-8 hours, read-out: % Degradation compared to DMSO, PDE6D; for % Degradation of PDE6D: comparison with comparative compound A
# T3 construct: endogenous in cells; host or cells: MV-4-11
# T3 sequence (O43924 whole entry): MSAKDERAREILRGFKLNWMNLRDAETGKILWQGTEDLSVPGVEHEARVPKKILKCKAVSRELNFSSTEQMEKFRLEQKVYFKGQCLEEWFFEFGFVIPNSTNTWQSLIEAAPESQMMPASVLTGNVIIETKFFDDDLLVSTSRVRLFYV
# T3 sequence (Q96SW2 whole entry): as the sequence (Q96SW2 whole entry) above
# T3 sequence (Q16531 whole entry partner): as the sequence (Q16531 whole entry partner) above
# Experimental: as §3, §4, §5, §6, §7
# [1] = PBMCs on anti-CD3, 24 h, fold difference from DMSO control
# [2] = 10 μM, PBMCs on anti-CD3, 24 h, fold difference from DMSO control
Dmax at 1 µM (Ikaros) [%],Dmax at 1 µM (CK1α) [%],Dmax at 1 µM (PDE6D) [%],SMILES,fold induction at 1 µM (IL-2; [1]),fold induction at 10 µM (IL-2; [2]),inhibition at 1 µM (TNFα) [%],inhibition at 10 µM (TNFα) [%],inhibition at 1 µM (IL-6) [%],inhibition at 10 µM (IL-6) [%],inhibition at 1 µM (IL-1β) [%],inhibition at 10 µM (IL-1β) [%],effect on IL-2 (in words) (IL-2; 10 μM),"fold induction at 10 µM (IL-2; 24 h, 10 μM, comparison with comparative compound B)","IL-2, % Induction compared to DMSO (IL-2; 10 μM, comparison with comparative compound B)",% Degradation of PDE6D (PDE6D; 1 μM),PDE6D degradation activity (in words) (PDE6D; 1 μM)
25 to 50,< 25,< 25,C[C@@H](c1cccc2c1CN(C1CCC(=O)NC1=O)C2=O)C(F)(F)F (stereo partly drawn) [Compound 30],1 to 1.5,0.5 to 1,< 10,10 to 25,< 10,< 10,< 10,< 10,–,–,–,–,–
25 to 50,< 25,< 25,O=C1CCC(N2Cc3c(cc(C(F)(F)F)cc3C3CCCC3)C2=O)C(=O)N1 (stereo not drawn) [Compound 29],0.5 to 1,0.5 to 1,< 10,10 to 25,10 to 25,< 10,< 10,< 10,–,–,–,–,–
25 to 50,50 to 75,≥ 75,O=C1CCC(N2Cc3c(cc(F)cc3C3CCCCCC3)C2=O)C(=O)N1 (stereo not drawn) [Compound 15],0.5 to 1,≤ 0.5,< 10,< 10,< 10,< 10,< 10,< 10,–,–,–,–,–
< 25,< 25,< 25,CC1(C)CC=C(c2cc(F)cc3c2CN(C2CCC(=O)NC2=O)C3=O)CC1 (stereo not drawn) [Compound 8],0.5 to 1,0.5 to 1,10 to 25,25 to 50,10 to 25,10 to 25,< 10,< 10,–,–,–,–,–
25 to 50,< 25,50 to 75,CC1(C)CCCC1c1cc(F)cc2c1CN(C1CCC(=O)NC1=O)C2=O (stereo not drawn) [Compound 26],0.5 to 1,0.5 to 1,< 10,10 to 25,< 10,< 10,< 10,< 10,–,–,–,–,–
< 25,50 to 75,≥ 75,"CC(C)c1cc(F)cc2c1CN(C1CCC(=O)NC1=O)C2=O (stereo not drawn) [Compound 34, 3-(6-fluoro-4-isopropyl-1-oxoisoindolin-2-yl)piperidine-2,6-dione]",≤ 0.5,–,25 to 50,–,< 10,–,< 10,–,–,–,–,–,–
≥ 75,–,50 to 75,"O=C1CCC(N2Cc3c(cc(F)cc3C(F)F)C2=O)C(=O)N1 (stereo not drawn) [Compound 17, 3-(4-(Difluoromethyl)-6-fluoro-1-oxoisoindolin-2-yl) piperidine-2,6-dione]",0.5 to 1,0.5 to 1,25 to 50,25 to 50,< 10,< 10,< 10,10 to 25,–,–,–,–,–
< 25,25 to 50,≥ 75,O=C1CCC(N2Cc3c(cc(F)cc3C3CCOCC3)C2=O)C(=O)N1 (stereo not drawn) [Compound 32],–,–,< 10,–,< 10,–,< 10,–,–,–,–,–,–

# Further lines, the molecule ahead of its results:
SMILES,Dmax at 1 µM (Ikaros) [%],Dmax at 1 µM (CK1α) [%],Dmax at 1 µM (PDE6D) [%],fold induction at 1 µM (IL-2; [1]),fold induction at 10 µM (IL-2; [2]),inhibition at 1 µM (TNFα) [%],inhibition at 10 µM (TNFα) [%],inhibition at 1 µM (IL-6) [%],inhibition at 10 µM (IL-6) [%],inhibition at 1 µM (IL-1β) [%],inhibition at 10 µM (IL-1β) [%],effect on IL-2 (in words) (IL-2; 10 μM),"fold induction at 10 µM (IL-2; 24 h, 10 μM, comparison with comparative compound B)","IL-2, % Induction compared to DMSO (IL-2; 10 μM, comparison with comparative compound B)",% Degradation of PDE6D (PDE6D; 1 μM),PDE6D degradation activity (in words) (PDE6D; 1 μM)
O=C1CCC(N2Cc3c(cccc3C3CCCC3)C2=O)C(=O)N1 (stereo not drawn) [Compound 2],< 25,25 to 50,≥ 75,0.5 to 1,0.5 to 1,< 10,10 to 25,10 to 25,10 to 25,< 10,10 to 25,–,–,–,–,–
"Cc1cccc2c1CN(C1CCC(=O)NC1=O)C2=O (stereo not drawn) [Compound B, reference compound]",–,–,–,–,–,–,–,–,–,–,–,induced IL-2 (upregulation),≥ 1.5,–,–,–
"CC1(N2Cc3c(cc(F)cc3C3CCCC3)C2=O)CCC(=O)NC1=O (stereo not drawn) [Compound 4, 3-(4-cyclopentyl-6-fluoro-1-oxoisoindolin-2-yl)-3-methylpiperidine-2,6-dione]",< 25,< 25,< 25,0.5 to 1,0.5 to 1,25 to 50,> 50,< 10,< 10,< 10,10 to 25,–,–,–,–,–
O=C1CCC(N2Cc3c(cc(F)cc3C3CCCC3)C2=O)C(=O)N1 (stereo not drawn) [Compound 1],50 to 75,≥ 75,≥ 75,≤ 0.5,≤ 0.5,25 to 50,25 to 50,< 10,< 10,10 to 25,25 to 50,strong inhibition of IL-2 (downregulation),–,A (a fold-change value of equal to or less than 0.5 (value≤0.5)),D (a % degradation value of equal to or more than 75% (value≥75%)),–
CC1(C)CCC(c2cc(F)cc3c2CN(C2CCC(=O)NC2=O)C3=O)CC1 (stereo not drawn) [Compound 7],< 25,< 25,≥ 75,1 to 1.5,0.5 to 1,< 10,10 to 25,10 to 25,< 10,< 10,< 10,–,–,–,–,–
"Cc1cccc2c1CN(C1CCCC(=O)NC1=O)C2=O (stereo not drawn) [Compound A, reference compound]",–,–,–,–,–,–,–,–,–,–,–,–,–,–,A (a % degradation value of less than 25% (value<25%)),did not demonstrate any measurable PDE6D degradation activity
